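These data come from cells grown in 96-well plates and exposed to compound for 48 hours at five concentrations. GI50: concentration for 50% inhibition of growth. The concentration for full growth arrest is given as TGI.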
system: HCC-2998 colon; experiment: inhibition of tumour cell growth, NCI panel, 48 h

Row | SMILES | GI50 | TGI
1 | COc1cc(/C=C/c2cc(/C=C/c3ccc(O)c(OC)c3)n(C(=O)Nc3ccc(C)cc3C)n2)ccc1O | 0.738 µM | 4.26 µM
2 | CCCSc1nc(COC(=O)NC)c(COC(=O)NC)n1C | – | > 100 µM
3 | O=C1CCC(O)=C1N=Nc1ccccc1 | – | > 100 µM
4 | NC(=O)NCc1c(C(N)=O)ncn1Cc1ccccc1 | – | > 100 µM
5 | O=C1CSC(/C(=N/Nc2ccccc2)c2nc3ccccc3[nH]2)=N1 | – | > 100 µM
6 | CN(C)CCN1C(=O)c2ccc3c4c(ccc(c24)C1=O)C(=O)N(CCN=C=S)C3=O | 0.172 µM | 0.381 µM
7 | COc1ccc2nc(NC(=O)C(=O)C(C#N)c3ccc([N+](=O)[O-])cc3)sc2c1 (configuration not stated) | – | > 100 µM
8 | O=C(O)[C@H](NS(=O)(=O)c1ccc([N+](=O)[O-])cc1)c1ccccc1 | – | > 100 µM
9 | CC(C)C[C@H](NC(=O)/C=C/Cn1ccc2ccccc2c1=O)B(O)O | 4.38 µM | 14.2 µM
10 | S=C1OC2CCCC[C@H]2O1 (some centres not stated) | – | > 100 µM
11 | O=C1/C(=C/c2cccc([N+](=O)[O-])c2)COc2ccc(Br)cc21 | – | > 100 µM
12 | COc1cccc2c(=O)c3c(sc12)c(N1CCNCC1)nc1ccccc13 | 1.7 µM | 3.26 µM
13 | CSC(C1c2ccccc2N(c2ccc(C)cc2)c2[nH]c(=O)n(C)c(=O)c21)S(=O)(=O)c1ccc(C)cc1 (configuration not stated) | – | > 100 µM
14 | CCOC(=O)NC(=O)c1cn(CCCOC(=O)CCCCCCCCCCC(=O)OCCCn2cc(C(=O)NC(=O)OCC)c(=O)[nH]c2=O)c(=O)[nH]c1=O | – | > 100 µM
15 | COc1cc(/C=C(\C#N)c2ccccc2)cc(OC)c1 | – | > 100 µM
16 | N#Cc1cccnc1Cl | – | > 100 µM
17 | O=C1CC2c3ccccc3CCC2c2ccccc21 (configuration not stated) | – | 50.5 µM
18 | CCCCCCCCCCCC(=O)OCC1OC(OC)C(NC(=O)N(CCCl)N=O)C(O)C1O (configuration not stated) | – | 33.2 µM
19 | C=CC/C=C/C/C=C/CCCCCCCc1cccc(O)c1C(=O)O | – | > 100 µM
20 | COc1ccc(OC)c2c(C(=O)O)c(Cc3ccccc3)ccc12 | – | > 100 µM
21 | O=C(Nc1c(Cl)cc([N+](=O)[O-])cc1Cl)C(=O)C(C1OC(=O)c2ccccc21)[N+](=O)[O-] (configuration not stated) | – | > 100 µM
22 | Cc1c(C(=O)/C=C/c2ccccc2)[n+](=O)c2ccccc2n1[O-] | – | 30.2 µM
23 | N#CC1CC2(C1)OCCS2 (configuration not stated) | – | > 100 µM
24 | COc1cc(NC(C)CCCN)c2nccc(C)c2c1 (configuration not stated) | – | 38.7 µM
25 | C1C[OH+]CC[OH+]CC[OH+]CC[OH+]CC[OH+]1.[Cl-].[V] | > 100 µM | > 100 µM
26 | c1ccc(C2Nc3ccccc3C3OCCCC23)cc1 (configuration not stated) | – | > 100 µM

system: DU-145 prostate; experiment: inhibition of tumour cell growth, NCI panel, 48 h

Row | SMILES | GI50 | TGI
27 | CC(CO)(CO)NCCCCn1ccc2c1C(=O)c1c(c(O)c3ccccc3c1O)C2=O | 16.1 µM | 30.5 µM
28 | O=C(O)C1C(Br)(c2ccccc2)C1(Br)c1ccccc1 (configuration not stated) | – | > 100 µM
29 | COc1cc(/C=C/c2cc(/C=C/c3ccc(O)c(OC)c3)n(C(=O)Nc3ccc(C)cc3C)n2)ccc1O | 0.387 µM | 1.5 µM
30 | C1CCC([PH+](C2CCCCC2)C2CCCCC2[PH+](C2CCCCC2)C2CCCCC2)CC1.O=C(C1[CH-]CCCC1)C1CCCC[N-]1.[Au] (configuration not stated) | 0.298 µM | 1.61 µM
31 | CN(C)CCN1C(=O)c2ccc3c4c(ccc(c24)C1=O)C(=O)N(CCN=C=S)C3=O | 0.0415 µM | 0.149 µM
32 | CC(C)C[C@H](NC(=O)/C=C/Cn1ccc2ccccc2c1=O)B(O)O | 8.78 µM | > 100 µM
33 | COc1cccc2c(=O)c3c(sc12)c(N1CCNCC1)nc1ccccc13 | 1.72 µM | 3.19 µM
34 | COc1c(CCl)cc(-c2cc(=O)c3ccccc3s2)cc1CCl | – | > 100 µM
35 | O=C1CC2c3ccccc3CCC2c2ccccc21 (configuration not stated) | – | > 100 µM
36 | CN(CCC#N)c1ccc(/C=C(\C#N)c2ccc(Br)cc2)cc1 | > 100 µM | > 100 µM
37 | COc1cc(NC(C)CCCN)c2nccc(C)c2c1 (configuration not stated) | – | > 100 µM
38 | CCCCCCCCCCCCCCCCCCOc1ccccc1CC(=O)OCC[N+]1(C)CCCC1 | 2.21 µM | 5.29 µM

system: OVCAR-8 ovarian; experiment: inhibition of tumour cell growth, NCI panel, 48 h

Row | SMILES | TGI | GI50
39 | O=C1[C@@H]2C(c3ccccc3F)=NO[C@@H]2C(=O)N1c1ccc(Cc2ccc(N3C(=O)[C@H]4C(c5ccccc5F)=NO[C@H]4C3=O)cc2)cc1 | > 100 µM | –
40 | C=CCc1ccc(Oc2cc(CC=C)c3c(c2O)O[C@@H](CO)[C@H]3c2ccc(O)c(-c3cc(CC=C)ccc3O)c2)cc1 | > 100 µM | –
41 | Cn1c2ccccc2c(=O)c2ccc(Cl)cc21 | > 10 µM | –
42 | CC(CO)(CO)NCCCCn1ccc2c1C(=O)c1c(c(O)c3ccccc3c1O)C2=O | 12 µM | 3.48 µM
43 | O=C(NCO)NCOCn1c(=O)n(CO)c(=O)n(CO)c1=O | > 100 µM | –
44 | Clc1ccc2c(c1)-c1c3c(nn1-c1ccccc1)-c1ccccc1SC3O2 (configuration not stated) | > 100 µM | –
45 | O=C(O)C1C(Br)(c2ccccc2)C1(Br)c1ccccc1 (configuration not stated) | 84.6 µM | –
46 | COc1ccc(CCN2COc3c([C@@H](C)CCC=C(C)C)ccc(C)c3C2)cc1OC | 20.2 µM | 4.21 µM
47 | O=C1OC2CCCC[C@@H]2C2C[C@]34CCCCC3[C@@H](C(=O)O4)C12 (some centres not stated) | > 100 µM | –
48 | CN(C)c1cc[c]([Sn]([c]2ccc(N(C)C)cc2)([c]2ccc(N(C)C)cc2)[c]2ccc(N(C)C)cc2)cc1 | 56.3 µM | 9.57 µM
49 | COc1cc(/C=C/c2cc(/C=C/c3ccc(O)c(OC)c3)n(C(=O)Nc3ccc(C)cc3C)n2)ccc1O | 2.36 µM | 0.562 µM
50 | CCCSc1nc(COC(=O)NC)c(COC(=O)NC)n1C | > 100 µM | –
51 | O=C1CCC(O)=C1N=Nc1ccccc1 | > 100 µM | –
52 | CCN(CC)c1ccc(N=Nc2ccc(-c3nc4ccc[n+](C)c4s3)cc2)cc1 | 65.3 µM | –
53 | NC(=O)NCc1c(C(N)=O)ncn1Cc1ccccc1 | > 100 µM | –
54 | O=C1CSC(/C(=N/Nc2ccccc2)c2nc3ccccc3[nH]2)=N1 | > 100 µM | –
55 | C1CCC([PH+](C2CCCCC2)C2CCCCC2[PH+](C2CCCCC2)C2CCCCC2)CC1.O=C(C1[CH-]CCCC1)C1CCCC[N-]1.[Au] (configuration not stated) | > 100 µM | 0.245 µM
56 | CN(C)CCN1C(=O)c2ccc3c4c(ccc(c24)C1=O)C(=O)N(CCN=C=S)C3=O | 0.173 µM | 0.0288 µM
57 | O=C(c1ccccc1)C1OC12C(=O)Nc1ccccc12 (configuration not stated) | > 100 µM | –
58 | COc1ccc2nc(NC(=O)C(=O)C(C#N)c3ccc([N+](=O)[O-])cc3)sc2c1 (configuration not stated) | > 100 µM | –

Row | SMILES | TGI | GI50
59 | O=C(O)[C@H](NS(=O)(=O)c1ccc([N+](=O)[O-])cc1)c1ccccc1 | > 100 µM | –
60 | CC(C)C[C@H](NC(=O)/C=C/Cn1ccc2ccccc2c1=O)B(O)O | 55.5 µM | 14.2 µM
61 | S=C1OC2CCCC[C@H]2O1 (some centres not stated) | > 100 µM | –
62 | O=C1/C(=C/c2cccc([N+](=O)[O-])c2)COc2ccc(Br)cc21 | > 100 µM | –
63 | COc1cccc2c(=O)c3c(sc12)c(N1CCNCC1)nc1ccccc13 | 6.5 µM | 2.43 µM
64 | COc1c(CCl)cc(-c2cc(=O)c3ccccc3s2)cc1CCl | > 100 µM | –
65 | CSC(C1c2ccccc2N(c2ccc(C)cc2)c2[nH]c(=O)n(C)c(=O)c21)S(=O)(=O)c1ccc(C)cc1 (configuration not stated) | > 100 µM | –
66 | CCOC(=O)NC(=O)c1cn(CCCOC(=O)CCCCCCCCCCC(=O)OCCCn2cc(C(=O)NC(=O)OCC)c(=O)[nH]c2=O)c(=O)[nH]c1=O | > 100 µM | –
67 | N#Cc1cccnc1Cl | > 100 µM | –
68 | O=C1CC2c3ccccc3CCC2c2ccccc21 (configuration not stated) | 53.9 µM | –
69 | CCCCCCCCCCCC(=O)OCC1OC(OC)C(NC(=O)N(CCCl)N=O)C(O)C1O (configuration not stated) | 41 µM | –
70 | C=CC/C=C/C/C=C/CCCCCCCc1cccc(O)c1C(=O)O | > 100 µM | –
71 | COc1ccc(OC)c2c(C(=O)O)c(Cc3ccccc3)ccc12 | > 100 µM | –
72 | O=C(Nc1c(Cl)cc([N+](=O)[O-])cc1Cl)C(=O)C(C1OC(=O)c2ccccc21)[N+](=O)[O-] (configuration not stated) | > 100 µM | –
73 | Cc1c(C(=O)/C=C/c2ccccc2)[n+](=O)c2ccccc2n1[O-] | 28.7 µM | –
74 | CN(CCC#N)c1ccc(/C=C(\C#N)c2ccc(Br)cc2)cc1 | > 100 µM | > 100 µM
75 | N#CC1CC2(C1)OCCS2 (configuration not stated) | > 100 µM | –
76 | C1C[OH+]CC[OH+]CC[OH+]CC[OH+]CC[OH+]1.[Cl-].[V] | > 100 µM | > 100 µM
77 | CC(=O)C(=CN1CCN(C(=O)c2ccco2)C1=S)C(C)=O | 45.1 µM | 8.15 µM
78 | c1ccc(C2Nc3ccccc3C3OCCCC23)cc1 (configuration not stated) | 44.3 µM | –

From PubChem BioAssay (NCI)
